Experiments:
[1] = tested on: Mycobacterium tuberculosis; experiment: Antimycobacterial activity against Mycobacterium tuberculosis H37Rv infected in CF-1 mouse assessed as change in survival time at 42 mg/kg administrated daily for 14 days with food relative to control; type: functional
[2] = tested on: Mycobacterium tuberculosis; experiment: Antimycobacterial activity against Mycobacterium tuberculosis H37Rv infected in CF-1 mouse assessed as change in survival time at 8 mg/kg administrated daily for 14 days with food relative to control; type: functional
[3] = tested on: Mycobacterium tuberculosis; experiment: Antimycobacterial activity against Mycobacterium tuberculosis H37Rv infected in CF-1 mouse assessed as change in survival time at 4 mg/kg administrated daily for 14 days with food relative to control; type: functional
[4] = tested on: Mycobacterium tuberculosis; experiment: Antimycobacterial activity against Mycobacterium tuberculosis H37Rv infected in CF-1 mouse assessed as change in survival time at 24 mg/kg administrated daily for 14 days with food relative to control; type: functional
Mycobacterium leprae [5] = experiment: Antimicrobial activity against Mycobacterium leprae assessed as microbial growth at 0.0469 ug/ml in presence of 0.0031 ug/ml KRM-1648 measured at 4 weeks (reference value: 147 +/- 19.1%); type: functional
Mycobacterium leprae [6] = experiment: Antimicrobial activity against Mycobacterium leprae assessed as microbial growth at 0.0469 ug/ml in presence of 0.2 ug/ml rifampin measured at 4 weeks (reference value: 147 +/- 19.1%); type: functional
Mycobacterium leprae [7] = experiment: Antimicrobial activity against Mycobacterium leprae assessed as microbial growth at 0.0469 ug/ml in presence of 0.0062 ug/ml KRM-1648 measured at 4 weeks (reference value: 147 +/- 19.1%); type: functional
Mycobacterium leprae [8] = experiment: Antimicrobial activity against Mycobacterium leprae assessed as fractional inhibitory concentration index at 0.0938 ug/ml in presence of 0.2 ug/ml rifampin measured at 4 weeks; type: functional
Mycobacterium leprae [9] = experiment: Antimicrobial activity against Mycobacterium leprae assessed as microbial growth at 0.0938 ug/ml in presence of 0.2 ug/ml rifampin measured at 4 weeks (reference value: 147 +/- 19.1%); type: functional
Mycobacterium leprae [10] = experiment: Antimicrobial activity against Mycobacterium leprae assessed as microbial growth at 0.0938 ug/ml in presence of 0.1 ug/ml rifampin measured at 4 weeks (reference value: 147 +/- 19.1%); type: functional
Mycobacterium leprae [11] = experiment: Antimicrobial activity against Mycobacterium leprae assessed as microbial growth at 0.0469 ug/ml in presence of 0.05 ug/ml rifabutin measured at 4 weeks (reference value: 147 +/- 19.1%); type: functional
Mycobacterium leprae [12] = experiment: Antimicrobial activity against Mycobacterium leprae assessed as fractional inhibitory concentration index at 0.0469 ug/ml in presence of 0.0062 ug/ml KRM-1648 measured at 4 weeks; type: functional
Mycobacterium leprae [13] = experiment: Antimicrobial activity against Mycobacterium leprae assessed as fractional inhibitory concentration index at 0.0469 ug/ml in presence of 0.05 ug/ml rifabutin measured at 4 weeks; type: functional
Mycobacterium leprae [14] = experiment: Antimicrobial activity against Mycobacterium leprae assessed as microbial growth at 0.0469 ug/ml in presence of 0.025 ug/ml rifabutin measured at 4 weeks (reference value: 147 +/- 19.1%); type: functional
Mycobacterium leprae [15] = experiment: Anti-leprotic activity against rifampin-susceptible Mycobacterium leprae infected in BALB/c mouse assessed as ATP level in footpad at 6 mg/kg administered with food daily for 2 weeks by Shepard's kinetic method (reference value: 109%); type: functional
Mycobacterium leprae [16] = experiment: Anti-leprotic activity against rifampicin-susceptible Mycobacterium leprae primary cultures at 4 weeks assessed as [3H]thymidine uptake per 5 times 10^7 cells at 0.2 mg/L incubated for 24 hrs (reference value: 1.05 +/- 0.16 pmol); type: functional
Mycobacterium leprae [17] = experiment: Anti-leprotic activity against rifampin-susceptible Mycobacterium leprae infected in BALB/c mouse assessed as ATP level per 10^6 Mycobacterium leprae in footpad at 6 mg/kg administered with food daily for 12 weeks by Shepard's kinetic method (reference value: 26.9 +/- 2.90 pg); type: functional
Mycobacterium leprae [18] = experiment: Anti-leprotic activity against rifampicin-susceptible Mycobacterium leprae subcultures at 4 weeks assessed as ATP level per 10^7 cells at 0.2 mg/L measured by bioluminescence assay (reference value: 425 +/- 64 pg); type: functional
[19] = Plasma concentration in rifampin-susceptible Mycobacterium leprae infected in BALB/c mouse at 6 mg/kg administered with food daily for 4 weeks by high-pressure liquid chromatography analysis; type: ADME, organism-based; conditions: po
Mycobacterium leprae [20] = experiment: Anti-leprotic activity against rifampin-susceptible Mycobacterium leprae infected in armadillo assessed as bacterial counts in footpad at 6 mg/kg administered with food daily for 1 week (reference value: 110%); type: functional
[21] = Plasma concentration in rifampin-susceptible Mycobacterium leprae infected in BALB/c mouse at 6 mg/kg administered with food daily for 12 weeks by high-pressure liquid chromatography analysis; type: ADME, organism-based; conditions: po
Mycobacterium leprae [22] = experiment: Anti-leprotic activity against rifampicin-susceptible Mycobacterium leprae subcultures at 4 weeks assessed as [3H]thymidine uptake per 5 times 10^7 cells at 0.2 mg/L incubated for 24 hrs (reference value: 1.41 +/- 0.20 pmol); type: functional
Mycobacterium leprae [23] = experiment: Anti-leprotic activity against rifampin-susceptible Mycobacterium leprae infected in BALB/c mouse assessed as ATP level per 10^6 Mycobacterium leprae in footpad at 6 mg/kg administered with food daily for 8 weeks by Shepard's kinetic method (reference value: 26.1 +/- 3.7 pg); type: functional
Mycobacterium leprae [24] = experiment: Anti-leprotic activity against rifampin-susceptible Mycobacterium leprae infected in BALB/c mouse assessed as ATP level in footpad at 6 mg/kg administered with food daily for 4 weeks by Shepard's kinetic method (reference value: 98%); type: functional
Mycobacterium leprae [25] = experiment: Anti-leprotic activity against rifampicin-susceptible Mycobacterium leprae primary cultures at 4 weeks assessed as ATP level per 10^7 cells at 0.2 mg/L measured by bioluminescence assay (reference value: 332 +/- 46 pg); type: functional
Mycobacterium leprae [26] = experiment: Anti-leprotic activity against rifampicin-susceptible Mycobacterium leprae primary cultures at 4 weeks assessed as [3H]thymidine uptake per 5 times 10^7 cells at 0.1 mg/L incubated for 24 hrs (reference value: 1.05 +/- 0.16 pmol); type: functional
[27] = Plasma concentration in rifampin-susceptible Mycobacterium leprae infected in BALB/c mouse at 6 mg/kg administered with food daily for 2 weeks by high-pressure liquid chromatography analysis; type: ADME, organism-based; conditions: po
Mycobacterium leprae [28] = experiment: Anti-leprotic activity against rifampin-susceptible Mycobacterium leprae infected in BALB/c mouse assessed as ATP level in footpad at 6 mg/kg administered with food daily for 1 week by Shepard's kinetic method (reference value: 102%); type: functional
Mycobacterium leprae [29] = experiment: Anti-leprotic activity against rifampin-susceptible Mycobacterium leprae infected in armadillo assessed as bacterial counts in footpad at 6 mg/kg administered with food daily for 4 weeks (reference value: 141%); type: functional
Mycobacterium leprae [30] = experiment: Anti-leprotic activity against rifampicin-susceptible Mycobacterium leprae subcultures at 4 weeks assessed as [3H]thymidine uptake per 5 times 10^7 cells at 0.3 mg/L incubated for 24 hrs (reference value: 1.41 +/- 0.20 pmol); type: functional
Mycobacterium leprae [31] = experiment: Anti-leprotic activity against rifampicin-susceptible Mycobacterium leprae primary cultures at 4 weeks assessed as ATP level per 10^7 cells at 0.3 mg/L measured by bioluminescence assay (reference value: 332 +/- 46 pg); type: functional
Mycobacterium leprae [32] = experiment: Anti-leprotic activity against rifampicin-susceptible Mycobacterium leprae subcultures at 4 weeks assessed as [3H]thymidine uptake per 5 times 10^7 cells at 0.1 mg/L incubated for 24 hrs (reference value: 1.41 +/- 0.20 pmol); type: functional
Mycobacterium leprae [33] = experiment: (§1) Inhibition of PGL1 synthesis in Mycobacterium leprae infected Swiss Webster mouse macrophages assessed as decrease in [U-14C]PA incorporation at 2 uM preincubated for 4 days post infection followed by [U-14C]PA addition and measured after 7 days by liquid scintillation counter analysis relative to control; type: functional
Mycobacterium leprae [34] = experiment: as §1, with “0.2” for “2”; type: functional
[35] = Plasma concentration in rifampin-susceptible Mycobacterium leprae infected in BALB/c mouse at 6 mg/kg administered with food daily for 1 week by high-pressure liquid chromatography analysis; type: ADME, organism-based; conditions: po
Mycobacterium leprae [36] = experiment: Anti-leprotic activity against rifampicin-susceptible Mycobacterium leprae subcultures at 4 weeks assessed as ATP level per 10^7 cells at 0.3 mg/L measured by bioluminescence assay (reference value: 425 +/- 64 pg); type: functional
Mycobacterium leprae [37] = experiment: Anti-leprotic activity against rifampin-susceptible Mycobacterium leprae infected in armadillo assessed as bacterial counts in footpad at 6 mg/kg administered with food daily for 16 weeks (reference value: 226%); type: functional
[38] = Plasma concentration in rifampin-susceptible Mycobacterium leprae infected in BALB/c mouse at 6 mg/kg administered with food daily for 8 weeks by high-pressure liquid chromatography analysis; type: ADME, organism-based; conditions: po
Mycobacterium leprae [39] = experiment: Anti-leprotic activity against rifampin-susceptible Mycobacterium leprae infected in armadillo assessed as bacterial counts in footpad at 6 mg/kg administered with food daily for 8 weeks (reference value: 162%); type: functional
Mycobacterium leprae [40] = experiment: Anti-leprotic activity against rifampicin-susceptible Mycobacterium leprae primary cultures at 4 weeks assessed as [3H]thymidine uptake per 5 times 10^7 cells at 0.3 mg/L incubated for 24 hrs (reference value: 1.05 +/- 0.16 pmol); type: functional
Mycobacterium leprae [41] = experiment: Anti-leprotic activity against rifampin-susceptible Mycobacterium leprae infected in BALB/c mouse assessed as ATP level per 10^6 Mycobacterium leprae in footpad at 6 mg/kg administered with food daily for 16 weeks by Shepard's kinetic method (reference value: 27.9 +/- 3.60 pg); type: functional
Mycobacterium leprae [42] = experiment: Anti-leprotic activity against rifampicin-susceptible Mycobacterium leprae primary cultures at 4 weeks assessed as ATP level per 10^7 cells at 0.1 mg/L measured by bioluminescence assay (reference value: 332 +/- 46 pg); type: functional
Mycobacterium leprae [43] = experiment: Anti-leprotic activity against rifampin-susceptible Mycobacterium leprae infected in armadillo assessed as bacterial counts in footpad at 6 mg/kg administered with food daily for 12 weeks (reference value: 190%); type: functional
Mycobacterium leprae [44] = experiment: Anti-leprotic activity against rifampin-susceptible Mycobacterium leprae infected in armadillo assessed as bacterial counts in footpad at 6 mg/kg administered with food daily for 2 weeks (reference value: 125%); type: functional
Mycobacterium leprae [45] = experiment: Anti-leprotic activity against rifampicin-susceptible Mycobacterium leprae subcultures at 4 weeks assessed as ATP level per 10^7 cells at 0.1 mg/L measured by bioluminescence assay (reference value: 425 +/- 64 pg); type: functional
[46] = tested on: Mycobacterium tuberculosis; experiment: Antimycobacterial activity against Mycobacterium tuberculosis H37Rv infected in CF-1 mouse assessed as change in survival time at 12 mg/kg administrated daily for 14 days with food relative to control; type: functional
[47] = tested on: Mycobacterium tuberculosis; experiment: Antimycobacterial activity against Mycobacterium tuberculosis H37Rv infected in CF-1 mouse assessed as change in survival time at 5 mg/kg administrated daily for 14 days with food relative to control; type: functional
[48] = tested on: Mycobacterium tuberculosis; experiment: Antimycobacterial activity against Mycobacterium tuberculosis H37Rv infected in CF-1 mouse assessed as change in survival time at 3 mg/kg administrated daily for 14 days with food relative to control; type: functional

COc1ccc(/N=N/c2ccc(NCCCN3CCCCC3)c3c2CCCC3)cc1
MST [1]: 50 days
MST [2]: 13 days
MST [3]: 11 days
MST [4]: 26 days

N[C@@H]1CN(c2c(F)cc3c(=O)c(C(=O)O)cn([C@@H]4C[C@@H]4F)c3c2Cl)CC12CC2 [SITAFLOXACIN ANHYDROUS]
Activity (Mycobacterium leprae [5]): 89%
Activity (Mycobacterium leprae [6]): 138%
Activity (Mycobacterium leprae [7]): 0%
fractional inhibitory concentration index (FICI) (Mycobacterium leprae [8]): 1
Activity (Mycobacterium leprae [9]): 0%
Activity (Mycobacterium leprae [10]): 124%
Activity (Mycobacterium leprae [11]): 0%
fractional inhibitory concentration index (FICI) (Mycobacterium leprae [12]): 0.375
fractional inhibitory concentration index (FICI) (Mycobacterium leprae [13]): 0.5
Activity (Mycobacterium leprae [14]): 141%

CO[C@H]1/C=C/O[C@@]2(C)Oc3c(C)c(O)c4c(c3C2=O)C2=NC3(CCN(CC(C)C)CC3)NC2=C(NC(=O)/C(C)=C\C=C\[C@H](C)[C@H](O)[C@@H](C)[C@@H](O)[C@@H](C)[C@H](OC(C)=O)[C@@H]1C)C4=O [RIFABUTIN]
Activity (Mycobacterium leprae [15]): 21%
Activity (Mycobacterium leprae [16]): 0 pmol
Activity (Mycobacterium leprae [17]): 0 pg
Activity (Mycobacterium leprae [18]): 0 pg
concentration at 672 h [19]: 510 ng/mL
Activity (Mycobacterium leprae [20]): 101%
concentration at 2016 h [21]: 90 ng/mL
Activity (Mycobacterium leprae [22]): 0.49 pmol
Activity (Mycobacterium leprae [23]): 0.049 pg
Activity (Mycobacterium leprae [24]): 9%
Activity (Mycobacterium leprae [25]): 0 pg
Activity (Mycobacterium leprae [26]): 0.65 pmol
concentration at 336 h [27]: 450 ng/mL
Activity (Mycobacterium leprae [28]): 72%
Activity (Mycobacterium leprae [29]): 94%
Activity (Mycobacterium leprae [30]): 0 pmol
Activity (Mycobacterium leprae [31]): 0 pg
Activity (Mycobacterium leprae [32]): 0 pmol
inhibition at 2 µM (Mycobacterium leprae [33]): 96%
inhibition at 0.2 µM (Mycobacterium leprae [34]): 84%
concentration at 168 h [35]: 380 ng/mL
Activity (Mycobacterium leprae [36]): 0 pg
Activity (Mycobacterium leprae [37]): 77%
concentration at 1344 h [38]: 52 ng/mL
Activity (Mycobacterium leprae [39]): 89%
Activity (Mycobacterium leprae [40]): 0 pmol
Activity (Mycobacterium leprae [41]): 0 pg
Activity (Mycobacterium leprae [42]): 192 pg
Activity (Mycobacterium leprae [43]): 83%
Activity (Mycobacterium leprae [44]): 98%
Activity (Mycobacterium leprae [45]): 127 pg

COc1ccc(/N=N/c2ccc(NCCCN3CCCCC3)c3c2CCCC3)cn1
MST [46]: 31 days
MST [47]: 13 days
MST [48]: 10 days
MST [4]: 46 days

Source: ChEMBL document CHEMBL4613212, “Insights of synthetic analogues of anti-leprosy agents” (Bioorg Med Chem, 2019)
